The source of these data is patent publication US20050044578A1, “Rat highly sensitive to carcinogen” (priority 2001, published 2005).

One data set concerns wild-type rats. Kind of data set: Sensitivity to hepatocarcinogenesis by diethyl nitrosamine, GST-P-positive foci in liver, wild-type rats. Conditions: eight-week-old male, 200 mg/kg intraperitoneally, 20 weeks after the administration, per 1 cm^2. It counts as in vivo, rat. The method, then:
(§1) The livers taken from each of the above-mentioned rats were fixed with acetone and embedded in paraffine, sliced, and then GST-P, a precancerous hepatic lesion marker, was immunostained for visualization (FIG. 4, left). Further, the number and the area of positive foci per unit area in the GST-P-positive foci were measured with an image analyzer (IPAP, Olympus) (FIG. 4, right).

The subject of a further data set is transgenic rats. Put plainly: Sensitivity to hepatocarcinogenesis by diethyl nitrosamine, GST-P-positive foci in liver, transgenic rats (mutant connexin 32). It counts as in vivo, rat. Conditions: 200 mg/kg intraperitoneally. The method, then: as §1
The mark [1] stands for this setting: transgenic rats, eight-week-old male, 20 weeks after the administration, liver, per 1 cm^2.

Structures are written as SMILES.

`CCN(CC)N=O` [diethyl nitrosamine]: in the data set with wild-type rats, the “area of the GST-P-positive foci per unit area (1 cm^2)” value is on record as 0.2 mm^2 and the “number of the GST-P-positive foci per unit area (1 cm^2)” value is given as 11.1. In the data set with transgenic rats (transgenic rats in comparison to wild-type rats, 20 weeks), the “sensitivity of the transgenic rats to the hepatocarcinogen” value is reported as “extremely high sensitivity”. Also, in the data set on transgenic rats (setting [1]), the “area of the GST-P-positive foci per unit area (1 cm^2)” value is listed as 3.32 mm^2 and the “number of the GST-P-positive foci per unit area (1 cm^2)” value came to 79.8.
